The values that follow come from patent US5385885A, “Inhibition of smooth muscle cell proliferation by antistasin and tick anticoagulant peptide” (priority 1991, dated 1995).

The subject of assay [1] is human venous endothelial cells. Nature of the assay: Release of mitogens from endothelial cells stimulated with factor Xa; conditioned media tested for mitogenic activity on 3T3 cells. The format is cell-based. To be noted: 1 unit = activity induced by 2 ng/ml PDGF, FXa 1 nM, ATS 5 nM, PDGF 2 ng/ml, 16 h. As for the experimental part:
(§1) Confluent primary cultures or subcultures (passages 1 and 2) of human venous endothelial cells (EC) were cultured in serum-free Dulbecco's Minimal Essential Medium (DMEM)+0.1% bovine serum albumin (BSA) in the presence of human or bovine factor Xa(1 nM) (Sigma Chemical Co., St. Louis, Mo.), antistasin (ATS) (0.5-5.0 nM), or both. Control cultures were untreated or received 2 ng/ml platelet-derived growth factor (PDGF) (Sigma Chemical Co., St. Louis, Mo.). After 16 hours incubation at 37° C., the conditioned media (CM) from the test and control cell cultures were collected and tested for mitogenic activity (MIT) using confluent NIH 3T3 cells (CCL 163, American Type Culture Collection, Rockville, Md.).
(§2) Primary cultures of EC derived from umbilical cord veins were prepared and grown according to a protocol provided to by Dr. Gwendolyn Stewart (Temple University Thrombosis Center, Phila., Pa.). After washing the lumen of the vein twice with DMEM, EC were dissociated with a solution containing 0.05% trypsin and 0.1% collagenase. Thirty minutes later, the venous content and the perfused DMEM (35 ml) was collected into a fifty ml centrifuge tube containing 3.5 ml of bovine serum and the mixture spun at 900 rpm for 10 minutes. The supernate was discarded and the cell pellet resuspended in 3.0 ml DMEM containing 20% fetal bovine serum (FBS) (heat inactivated at 56° C. for 30 minutes), 90 μg heparin per ml, 5 μg fibronectin per ml, and 60 μg endothelial growth factor per ml (cDMEM), and seeded into 35 mm tissue culture dishes. After 24 hours of incubation at 37 °C, 5% CO2, the culture was washed 3-4 times with DMEM and incubated 2-4 days until the cells were confluent. The monolayers were washed with phosphate buffered saline (PBS) and cultured in DMEM with 0.1% BSA in the presence and absence of 1 nM factor Xa, 5 nM antistasin, or a mixture of both. As positive and negative controls, separated monolayers were incubated with the medium plus 2 ng/ml PDGF or with the medium alone. After 16 hours of incubation at 37° C., conditioned media (CM) were collected, centrifuged at 4000×g for 10 minutes, and the supernate was collected and stored at 4° C. until use. The mitogenic activity of the CM was tested by measuring the incorporation of [^3 H] thymidine into cultures of Balb 3T3 cells. For this purpose, wells were seeded with 2×10^4 3T3 cells suspended in 1 ml DMEM with 10% FBS. Once confluent (5-7 days of culture), CM were added and cells incubated for 18 hours at 37° C. after which cultures were washed with warm DMEM, tritiated thymidine added (1 μCi/ml) and cells incubated for 4 hours at 37° C. […] The lysate was transferred to vials with scintillation fluid and radioactivity monitored in a beta radiation counter. […]

Assay [2] deals with human venous endothelial cells. Nature of the assay: Release of mitogens from endothelial cells stimulated with PDGF; conditioned media tested for mitogenic activity on 3T3 cells. The assay is classed as cell-based. To be noted: PDGF 2 ng/ml, ATS 5 nM, 16 h. As for the experimental part: as §1, with “cells” for “cells (EC)”, “platelet-derived growth” for “human or bovine”, “(PDGF) (2 ng/ml),” for “Xa(1 nM) (Sigma Chemical Co., St. Louis, Mo.),”, “(5.0-10” for “(0.5-5.0”, “PDGF.” for “platelet-derived growth factor (PDGF) (Sigma Chemical Co., St. Louis, Mo.).”, “C.,” for “C., the”
as §2, with “2 ng/ml PDGF,” for “1 nM factor Xa,”, “alone.” for “alone. After 16 hours of incubation at 37° C., conditioned media (CM) were collected, centrifuged at 4000×g for 10 minutes, and the supernate was collected and stored at 4° C. until use. The mitogenic activity of the CM was tested by measuring the incorporation of [^3 H] thymidine into cultures of Balb 3T3 cells. For this purpose, wells were seeded with 2×10^4 3T3 cells suspended in 1 ml DMEM with 10% FBS. Once confluent (5-7 days of culture), CM were added and cells incubated for 18 hours at 37° C. after which cultures were washed with warm DMEM, tritiated thymidine added (1 μCi/ml) and cells incubated for 4 hours at 37° C.”

The subject of assay [3] is smooth muscle cells. Nature of the assay: Effect of antistasin and tick anticoagulant peptide on factor Xa induced mitogenesis of smooth muscle cells. To be noted: FIG. 2. The assay is classed as cell-based, rat. The method, then:
Primary smooth muscle cell cultures were prepared from the thoracic and abdominal aorta of 2-3 month old Wistar rats essentially using the procedure of Reilly, C. F. (1990) J. Cell Physiol. 142,342 (1990). After removing as much fat and adherent adventitia as possible with scissors and forceps, the tissue was finely minced, enzymatically dissociated with successive 37° C. incubations in HBSS containing collagenase (Sigma, 0.5 mg/ml for 15 min.), then elastase (Sigma, 0.125 mg/ml for 30 min.) and again collagenase (60 min.). […] Cells were grown in Dulbecco's Minimal Essential Medium (DMEM) containing 10% fetal bovine serum (FBS) with antibiotics. […] Using a monoclonal antibody to alpha actin (Sigma Chemical Company, St. Louis, Mo.), about 60-80% (preparation dependent) of these confluent cells stained positive for this smooth muscle cell marker. After 10 days in culture, the cells were dissociated with trypsinethylene diamine tetraacetate (EDTA), split 1:10 and subcultured in the above medium. At confluence the cells were transferred to DMEM containing 0.1 % FBS for a 24 hour period before using them for assay. […]
(§3) The prepared rat smooth muscle cells were seeded in Falcon 24 multiwell plates (10^5 cells/well) and cultured at 37° C., in a 5% CO2 atmosphere in 1 ml DMEM containing 10% FBS. […] The cells were washed twice with cold phosphate buffered saline (PBS), treated twice with 5% trichloroacetic acid (TCA) for 5 min., dissolved with 0.25N NaOH (0.4 ml) incubated at 37° C. for 60 min., mixed with 5 ml Ecolume (ICN Biomedicals, Costa Mesa, Calif.), and their radioactivity determined in a scintillation counter. […] Smooth muscle cell mitogenic activity produced by exogenous agents is expressed as % relative mitogenic activity which is defined as: [formula] […]
The effects of antistasin and tick anticoagulant peptide on factor Xa induced mitogenesis of smooth muscle cells were tested using the method shown in Example 4. […] At the end of the 24 hour incubation, ^3 H-thymidine incorporation into DNA was monitored and smooth muscle cell mitogenic activity was assessed as described in Example 4.

Assay [4] deals with smooth muscle cells. Nature of the assay: Effect of factor Xa inhibitors on human protein S and bovine factor X induced smooth muscle cell mitogenesis. The assay is classed as cell-based, rat. The following applies: FIG. 3. As for the experimental part:
Primary smooth muscle cell cultures were prepared from the thoracic and abdominal aorta of 2-3 month old Wistar rats essentially using the procedure of Reilly, C. F. (1990) J. Cell Physiol. 142,342 (1990). After removing as much fat and adherent adventitia as possible with scissors and forceps, the tissue was finely minced, enzymatically dissociated with successive 37° C. incubations in HBSS containing collagenase (Sigma, 0.5 mg/ml for 15 min.), then elastase (Sigma, 0.125 mg/ml for 30 min.) and again collagenase (60 min.). […] Cells were grown in Dulbecco's Minimal Essential Medium (DMEM) containing 10% fetal bovine serum (FBS) with antibiotics. […]
as §3

In assay [5] the target is blood coagulation factor Xa (Homo sapiens, UniProt P00742). The following applies: Waxman et al.; cited from earlier work.
Another assay deals with T1, Factor VIIa (Homo sapiens, UniProt P08709).
T1 sequence (P08709 213-466 limits assumed): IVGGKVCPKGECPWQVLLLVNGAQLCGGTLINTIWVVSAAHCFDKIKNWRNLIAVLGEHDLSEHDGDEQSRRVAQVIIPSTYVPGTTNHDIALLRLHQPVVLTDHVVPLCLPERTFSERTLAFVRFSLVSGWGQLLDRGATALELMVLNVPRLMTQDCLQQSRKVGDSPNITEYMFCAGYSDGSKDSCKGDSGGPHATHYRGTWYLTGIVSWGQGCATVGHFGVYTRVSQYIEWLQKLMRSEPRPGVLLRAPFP
T1 sequence (P08709 61-212 partner limits assumed): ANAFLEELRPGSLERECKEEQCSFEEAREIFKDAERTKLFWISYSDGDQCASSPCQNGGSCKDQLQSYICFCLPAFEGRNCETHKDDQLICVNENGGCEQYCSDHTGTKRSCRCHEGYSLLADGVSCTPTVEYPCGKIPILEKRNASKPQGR
The following applies: Waxman et al.; cited from earlier work.

A further assay relates to kallikrein. The following applies: Waxman et al.; cited from earlier work.
A further assay concerns the target T2, trypsin (Bos taurus, UniProt P00760).
T2 construct: gene PRSS1
T2 sequence (P00760 24-246): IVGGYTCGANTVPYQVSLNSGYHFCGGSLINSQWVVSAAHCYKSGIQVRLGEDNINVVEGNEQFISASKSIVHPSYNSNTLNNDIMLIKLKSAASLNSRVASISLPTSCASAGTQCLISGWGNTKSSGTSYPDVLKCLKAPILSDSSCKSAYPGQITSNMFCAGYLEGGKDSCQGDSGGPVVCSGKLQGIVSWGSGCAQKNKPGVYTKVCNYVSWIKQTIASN
The following applies: Waxman et al.; cited from earlier work.

A further assay concerns the target chymotrypsin (Bos taurus, UniProt P00766). The following applies: Waxman et al.; cited from earlier work.
The next assay concerns the target thrombin (Homo sapiens, UniProt P00734). The following applies: Waxman et al.; cited from earlier work.

“Also recorded” adds a separate entry of the source.

Sequence of blood coagulation factor Xa (P00742 235-488 limits assumed): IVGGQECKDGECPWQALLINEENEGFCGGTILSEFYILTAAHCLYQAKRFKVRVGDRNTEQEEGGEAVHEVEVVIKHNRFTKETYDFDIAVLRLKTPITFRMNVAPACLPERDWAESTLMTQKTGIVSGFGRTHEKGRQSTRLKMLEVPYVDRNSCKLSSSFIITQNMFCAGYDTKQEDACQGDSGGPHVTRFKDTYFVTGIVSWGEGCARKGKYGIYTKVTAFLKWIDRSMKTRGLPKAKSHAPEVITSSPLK
Sequence of blood coagulation factor Xa (P00742 41-179 partner limits assumed): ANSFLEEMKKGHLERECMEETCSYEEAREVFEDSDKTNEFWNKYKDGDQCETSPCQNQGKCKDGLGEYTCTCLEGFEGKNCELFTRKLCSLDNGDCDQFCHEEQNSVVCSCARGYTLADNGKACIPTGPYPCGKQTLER

With PDGF [reference compound], the “Mitogenic units of EC conditioned media” value in assay [1] (EXP 1), in assay [1] (EXP 2), in [1] (EXP 3), in assay [1] (EXP 4), in [2] (EXP 1) and in assay [2] (EXP 2) was 1.00 mitogenic units throughout. Further, the “Mitogenic units of EC conditioned media” value in [2] (EXP 3) was found to be 1.00 mitogenic units.
In the case of “tick anticoagulant peptide (YNRLCIKPRDWIDECDSNEGGERAYFRNGKGGCDSFWICPEDHTGADYYSSYRDCFNACI; UniProt P17726 1-60, looked up) [TAP, 60-amino acid peptide isolated from extracts of the soft tick Ornithodoros moubata]”, the “Relative mitogenic activity above control” value is recorded as “about 25%” in the assay with smooth muscle cells [3] (10 nM fXa and 3-25 nM TAP); “about 9%” with smooth muscle cells [3] (10 nM fXa and 50-62 nM TAP); “near zero” in the assay with smooth muscle cells [3] (10 nM fXa with 100-250 nM TAP). In the assay with smooth muscle cells [4] (10 nM bovine factor X with 100 nM TAP), the “Inhibition of relative mitogenic activity of bovine factor X” value is “not significantly inhibited”. In the assay on smooth muscle cells [4] (protein S with 250 nM TAP), the “Inhibition of relative mitogenic activity of protein S” value is listed as “abolished”. Besides, the “Inhibition of blood factor Xa” value in [5] is “highly specific inhibitor; also recorded: potent inhibitor”. In the assay with Factor VIIa, the “Effect on Factor VIIa” value was “no effect”. The Effect on kallikrein result in the assay with kallikrein is given as “no effect”. Moreover, the Effect on trypsin result in the assay with trypsin was “no effect”. Also, the Effect on chymotrypsin entry in the assay with chymotrypsin was “no effect”. In addition, the Effect on thrombin entry with thrombin is “no effect”.
